Experimental data: patent publication US20250049747A1, “USE OF HYPERPOLARIZING AGENTS ALONE AND IN COMBINATION WITH OTHER THERAPEUTIC AGENTS FOR TREATING CANCERS INCLUDING GLIOBLASTOMA” (Trustees of Tufts College, priority 2021, published 2025)
“Also recorded” adds a separate entry of the source.

Columns and labels:
[1] = test system: NG108-15 cells; assay: Growth and FUCCI assays in NG108-15 cells (cell counts, cell cycle, recovery test); conditions: for fold decrease in proliferation compared to control: high serum; for FUCCI cell cycle proportion: NG108-15, day 6
Method: Cells were plated in 96 well plates at a low confluence and drugs were added fresh every other day for 6 days. Some studies removed the drug at 6 days and added media with no drug for an additional 4 days to test for proliferation. Images of the cells were taken every day and a cell profiler pipeline was used to count the cells and determine the ratio of cells in each part of the cell cycle. […] Cell Culture. […] Cells were disassociated with Accutase and passaged when 70% confluent and maintained at 37° C. with 5% C02. Media was changed every two days. […] All drug screens including controls were done using 0.02% DMSO in the high serum Fluorobrite DMEM.
Growth and FUCCI assays. Both cell lines were plated at 5,000 cells per mL into black-walled flat-bottom 96-well plates coated with 1/50 dilution of Matrigel. Images of cells were taken on Day 0 and every subsequent day for 10 days using a Zeiss Axio1 fitted with an on-stage incubator and kept at 37° C. with 5% C02. A 5× objective was used along with filters for YFP, RFP, and CFP and careful calibration of each plate was done to ensure that the same fields of view were imaged each day. Drugs were added after the initial images were taken and then changed every two days until day 6. For recovery experiments, after imaging on day 6, all drugs were removed, and cells were put into imaging media without any added drugs. This media was changed every two days until day 10. Analysis of growth and snap shots of FUCCI reporters over the 6 days or 10 days was done using a CellProfiler [72]pipeline designed by the Broad. The fractional difference in cell number was calculated by dividing the total number of cells each day by the total number of cells from day 0. The ratio of cells in each cell cycle stage every day was determined by counting all the nuclei of one color and dividing it by the total number of nuclei. Blind quality control was done on all the images to make sure that any fibers or image artifacts were not incorrectly counted by the program.

[2] = test system: NG108-15 cells; assay: Automated patch-clamp electrophysiology, resting membrane potential; type: cell-based, mouse/rat; conditions: NG108-15, immediately after application
Method: Electrophysiology. SyncroPatch 384PE platform (Nanion Technologies®) was used to perform the automated patch-clamp experiments. This system provides giga-ohm resistance seals during simultaneous recording in the 384-well plate format. Cells were harvested 48-72 h after seeding 1-2×10^6 cells in T175 culture flasks (Falcon), then cells were rinsed with PBS (5 mL) and treated with 3 mL Accutase ([…] technologies) for 5 min at 37° C., re-suspended in 10 mL of serum-free media and pelleted at 1000 rpm for 3 min at RT. […] The cells were kept until the moment of the experiment in a temperature controlled dedicated reservoir at 10° C. and shaken at 200 rpm as described. The experiments were performed within one hour after the harvesting process. The assays were carried in single-hole chips with resistances between 4-5 MΩ after priming the chip with the following solutions (in mM), physiological extracellular solution (pECS) 10 HEPES, 140 NaCl, 5 Glucose, 4 KCl, 2 CaCl2), 1 MgCl2, 295-305 mOsm pH 7.4 (NaOH). Internal recording solution (in mM) 20 EGTA, 50 KCl, 10 NaCl, 60 KF, 10 HEPES at pH 7.2, and 285 mOsm. 15 μL of the cell suspension (50% v/v pECS/Medium no serum) was added to each well to a final density of 50-80K cells/mL. Cell capture was promoted by holding a negative pressure of −100 mbar for 20 s. After successive hyperpolarization steps from −30 mV to −100 mV enhanced the capture the seal followed by the transient addition of a high Ca2+ extracellular solution (80 mM NaCl, 3 mM KCl, 35 mM CaCl2), 10 mM MgCl2, 10 mM HEPES at pH 7.4 and 298 mOsm. High Ca2+ solution is washed out by successive external exchanges replacing half of the volume of the well each time with the external recording solution. All recording solutions were prepared with ultrapure MilliQ water (18 MD-cm). After the formation of the Giga-seal, a 250 mbar pressure was applied to break the membrane patch. Once in whole-cell configuration, different voltage protocols were applied to dissect different conductances in NG108-15 cells. Signals were recorded in the current-clamp mode “I=0” (passive conditions) where no current was injected, to monitor the membrane potential. The membrane potentials were recorded for seven sweeps of 1 sec, with an inter-sweep time of 10 s. The average membrane potentials of the 7 sweeps were reported.
Electrophysiology of NG108-15 Cells Show Changes in Resting Membrane Potential Induced by Treatment. […] Untreated cells were patched, baseline measurements were taken and then the drugs were added and the changes in the cell Vmem were recorded.

[3] = test system: NG108-15 cells; assay: Antibody staining, BrdU and senescence assays in NG108-15 cells; type: cell-based, mouse/rat; conditions: NG108-15, 6 days
Method: Antibody Staining, BrdU and Senescence Assays. NG108-15 cells were plated on PEI and Matrigel coated plates at 15,000 or 30,000 cells/mL, U87 cells at 10,000 cells/mL and grown in imaging media for 6 days with drug treatment. Fresh media was added every 2 days. On day 6, cells were fixed with 4% formaldehyde in PBS for 30 minutes for all antibody staining, except for BrdU which was fixed for 15 minutes, and for the senescence assay which was fixed for 20 min using the Senescence Beta-Galactosidase Staining Kit (9860, CellSignaling) and thereafter stained according to manufacturer's protocol. After fixing, cells were washed twice with PBS, and were permeabilized in PBS with 0.3% Triton-X for 15 min then washed again twice with PBS. The cells for the BrdU assay were additionally treated with 1N HCl for 10 min on ice, followed by a treatment with 2N HCl for 50 min at room temp. Cells were then blocked with standard blocking buffer comprised of TBS containing 10% goat serum, 0.1% BSA, and with 0.05% Tween 20 or without detergent for antibodies against phosphorylated proteins or monoclonal antibodies except for Anti-YAP and Anti-BrdU staining, which were done according to manufacturer's protocol. Primary antibodies were added at the following concentrations: 1:250 anti-S100 beta (GTX129573, Genetex), 1:500 anti-GFAP (AB5804, EMD-Millipore), 1:300 anti-SOX10 (ab155279, Abcam), 1:100 MAP2 (4542, CellSignaling), 1:400 anti-cleaved caspase 3 (9661, CellSignaling), 1:300 anti-Cx43 (STJ2411, St. John's Labratory), 1:800 anti-p27^Kip1 (3698, CellSignaling), 1:150 anti-BrdU (5292, CellSignaling), 1:125 anti-LC3-II (2775, CellSignaling), 8 μg/mL anti-04 (MAB1326, R&D Systems), 1:1000 anti-TH (RPCA-TH, Encor), 1:4000 anti-NSE (RPCA-NSE, Encor), 1:4000 anti-NFM (RPCA-NF-M, Encor), 0.5 μg/mL anti-TujI (801202, Biolegend), 1:400 anti-NF-KB p65 (8242, CellSignaling), 1:125 anti-phospho CREB (05-807, EMD-Millipore), 1:250 anti-vimentin (ab92547, Abcam), 1:125 anti-YAP (14074, CellSignaling). Antibodies were diluted in their respective blocking buffer and incubated overnight at 4° C. The next day, cells were washed with TBS-T or TBS for 3× for 5 min each and secondary antibody was added as follows: 1:1000 donkey anti-mouse 647 (A-31571, Thermo-Fisher) or 1:1000 donkey anti-rabbit 647 (A-31573, Thermo-Fisher). Each were diluted in blocking buffer along with 2.5 μg/mL Hoechst 33342 and incubated for 1 hour at room temperature. Cells were then washed again with TBS-T or TBS for 3× for 5 min each and covered with Gelvatol. Cells were imaged with an EVOS M7000 system, with at least 50% of each well in a 96 well plate imaged and analyzed using a CellProfiler pipeline for measuring integrated intensity, mean intensity, or nuclear to cytoplasmic ratio of mean intensities.

## O=C(Nc1cc(C(F)(F)F)ccc1O)Nc1cc(C(F)(F)F)ccc1O [NS1643]
[1]; NG108-15, 6 days of treatment, NS1643 at 20 μM
  fold decrease in proliferation compared to control: about 1.6 fold
[1]; NG108-15, 6 days of treatment, NS1643 at 50 μM
  fold decrease in proliferation compared to control: ~2.4 fold
[1]
  FUCCI cell cycle proportion: did not seem to affect the cell cycle proportion
[2]
  change in resting membrane potential compared to control: significantly hyperpolarized
[3]
  cleaved caspase 3 staining: decrease the cleaved caspase 3 positive cells significantly
  size of the nuclei: significantly larger

## COc1ccnc(C[S+]([O-])c2nc3ccc(OC(F)F)cc3[nH]2)c1OC (stereo not shown) [Pantoprazole, pantoprazole]
[1]; NG108-15, 6 days of treatment
  cell proliferation compared to control (words): very significant decrease in cell proliferation
[1]
  FUCCI cell cycle proportion: increase in cells arrested at late S phase; also recorded: increases the proportion of cells in early S
[1]; NG108-15, drugs removed at day 6, followed to day 10
  recovery of proliferation after treatment removed: immediately re-entered the cell cycle
[2]
  change in resting membrane potential compared to control: did not have an immediate effect
[3]
  BrdU incorporation: significant decrease
  S100B and GFAP markers: significantly upregulated
  cleaved caspase 3 staining: significant increase in cleaved caspase 3 staining
  connexin 43 (Cx43) expression: increase in connexin 43 (Cx43) expression
  senescence-associated beta-galactosidase activity stain: very significant increase
  size of the nuclei: significantly larger
